PMC3529812 (Journal of immunology (Baltimore, Md. : 1950), 2012)

Columns and labels:
[1] = test system: 20S proteasome; assay: 20S proteasome cleavage assay with LC-MS of cleavage products; assay type: biochemical, human; settings: 10 μM lactacystin; substrate 23 mer; compared to uninhibited proteasome reaction
[2] = biological target: HLA-A2 (Homo sapiens, UniProt P04439, D140Y/D185E/D98H/E176V/E277Q/G131W/G231S/I119V/I121R/I166T/I218V/L300P/L318F/N151K/N90K/P208A/P217A/Q86G/Q94H/R138H/R169H/T345S); assay: T2 HLA-A2 stabilization assay; assay type: cell-based

SMILES	Effect of lactacystin on generation of p373–382 by proteasome [1]	EC50 [2]
CC(=O)N[C@@H](CSC(=O)[C@]1([C@@H](O)C(C)C)NC(=O)[C@H](C)[C@@H]1O)C(=O)O [lactacystin]	not completely blocked	
CC(C)C[C@H](NC(=O)[C@@H](N)CO)C(=O)N[C@@H](C)C(=O)N[C@@H](Cc1ccccc1)C(=O)N[C@@H](CC(C)C)C(=O)N1CCC[C@H]1C(=O)N[C@@H](CCC(=O)O)C(=O)N[C@@H](CO)C(=O)N[C@@H](Cc1ccccc1)C(=O)N[C@@H](CC(=O)O)C(=O)O [p373–382]		1.8 µM
